We go through three molecules from paper PMC11019538, “Biophysics-Guided Lead Discovery of HBV Capsid Assembly Modifiers” (ACS Infectious Diseases, 2024).

One data set deals with T1, Cp149 (Hepatitis B virus genotype D subtype adw, UniProt P03147).
T1 construct: The N-terminal domain of Cp (Cp149) is sufficient for forming regular capsids; made in house; host or cells: E. coli BL21(DE3)
On the set-up: method as in PMID 31712213. As to conditions: read-out: previously reported dissociation constant (KD); cited from earlier work.

The target of data set [1] is T2, Cp149 capsid assembly (Hepatitis B virus genotype D subtype adw, UniProt P03147).
T2 construct: The N-terminal domain of Cp (Cp149) is sufficient for forming regular capsids; made in house; host or cells: E. coli BL21(DE3)
T2 sequence (P03147 1-149): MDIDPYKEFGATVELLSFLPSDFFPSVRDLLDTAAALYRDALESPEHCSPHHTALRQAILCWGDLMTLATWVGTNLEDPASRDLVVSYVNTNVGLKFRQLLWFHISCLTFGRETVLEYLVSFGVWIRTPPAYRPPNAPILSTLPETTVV
The data set is described as follows: Size exclusion chromatography of Cp149 assembly. The data set is classed as biochemical. Particulars: 20 μM Cp149, 40 μM CAM, 500 mM NaCl, 1 h, 37 °C. On the procedure:
The Cp149 protein solution and the compound solution were initially mixed in concentrations of 40 μM Cp149 and 80 μM compound and incubated for 1 h at 37 °C to allow the compound to bind to the protein. The NaCl solution was then added to the incubated mixture to final concentrations of 20 μM Cp149, 40 μM compound, and 500 mM NaCl to initiate the assembly of Cp149. This mixture was incubated at 37 °C for 1 h. Finally, […] of the sample was analyzed using a hand-poured Superose 6 column, at the flow rate of 0.4 mL/min, and the isocratic mobile phase was 50 mM HEPES (pH 7.5).
A general note: In gel filtration, larger molecules generally elute earlier.

In data set [2] the target is T2, Cp149 capsid assembly. Briefly: Transmission electron microscopy of assembled Cp149 products. Format: biochemical. As to conditions: 20 μM Cp149, 40 μM compound. On the procedure: The assembled samples of Cp149 were prepared as described in the Size Exclusion Chromatography section. Eight μL of each sample was added onto the 300 mesh Lacey Formvar carbon–copper grids (Ted Pella, Inc.) and allowed to sit for 1.5 min. The grid was then rinsed in 500 mL of deionized water for 10 s twice to rinse off the extra buffer on the grid. After drying, the sample was stained with 8 μL of 2% uranyl acetate for 1 min. After removal and drying of the uranyl acetate solution, the sample was imaged with a Hitachi HT7700 electron microscope at an accelerating voltage of 120 kV, at the IMat Materials Characterization Facility of Georgia Institute of Technology. The images underwent processing using ImageJ software. Initially, to minimize noise, a Gaussian blur filter was applied. These images were then converted into an 8 bit binary format for edge detection. ImageJ identified particles ranging in size from 800 to 2000 pixels. An example of a processed image can be seen in Figure S14. The circularity of each particle was calculated using the formula circularity = 4π × area × perimeter^–2. […] A total of four images, each containing a minimum of 100 capsids, were analyzed to determine the proportion of the abnormal capsids. The entire experiment was duplicated, and the outcomes from both sets were then averaged.

Data set [3] can be described thus: MTT cytotoxicity, HepG2 cells. Format: cell-based, human. As to conditions: human, HepG2 cells (liver carcinoma). An outline of the steps:
(§1)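 Non-radioactive MTT proliferation assay kit used; cytotoxicity inferred from reduced tetrazolium conversion by treated cultures.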

The nature of data set [4]: MTT cytotoxicity, PBM cells. Format: cell-based, human. Particulars: human, peripheral blood mononuclear (PBM) cells. An outline of the steps: as §1
Data set [5] relates to HBV DNA replication in HepAD38 cells. The data set is described as follows: HBV DNA replication inhibition assay in HepAD38 cells (7 days, PCR of supernatant DNA). Format: cell-based, hepatitis B virus. Particulars: Hepatitis B virus, HepAD38 cells. A digest of the protocol:
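HepAD38 cells treated with compounds in dose–response […] for 7 days. On day 7, total DNA purified from supernatant and HBV DNA quantified by PCR; samples run in duplicate.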

A short description of data set [6]: MTT cytotoxicity, four cell lines taken together. Format: cell-based. Particulars: human, African green monkey; PBM, CEM, Vero, HepG2; read-out: CC50 in all cell lines. The procedure:
Human peripheral blood mononuclear (PBM), T lymphoblast CEM-CCRF (herein referred to as CEM cells), African green monkey kidney (Vero), or human liver carcinoma (HepG2) cells were tested via MTT assay using the CellTiter 96 Non-Radioactive Cell Proliferation (Promega) kit as previously described.[63]

A short description of data set [7]: MTT cytotoxicity, CEM cells. Format: cell-based, human. Particulars: human, T lymphoblast CEM-CCRF (CEM) cells. A digest of the protocol: as §1
A short description of data set [8]: MTT cytotoxicity, Vero cells. The data set is classed as cell-based, African green monkey. Particulars: African green monkey, Vero cells (kidney). An outline of the steps: as §1

Like-named read-outs stand apart in the source and are kept apart here.

As usually defined, the Kd is the free concentration of one partner at which half of the binding sites on the other are occupied at equilibrium, for simple one-to-one binding. For orientation: CC50 means the concentration that lowers cell viability or growth by half.

T1 sequence (P03147 1-149): as above

For the molecule `C#CCNC(=O)C(=O)c1c(C)c(C(=O)Nc2ccc(F)c(F)c2)n(C)c1C` [GLP-26], the Kd on Cp149 was 0.7 µM.
As for `CCOC(=O)C1=C(CN2CCOCC2)NC(c2nccs2)=NC1c1ccc(F)cc1Br` (stereo not shown) [GLS4, reference compound], the “effect on distribution of dimers and capsids / capsid size (SEC)” value on Cp149 capsid assembly [1] is recorded as “strong enhancement of assembly”. Also, the “effect on capsid morphology (TEM)” value on Cp149 capsid assembly [2] is “strong misdirecting effects”.
As for `Cc1cc2nc(-c3ccccn3)c(-c3ccccn3)nc2cc1C` [GT-5], the cytotoxic concentration (CC50) in data set [3], in [4], in [6], in [7] and in [8] was more than 100 µM throughout. The inhibition at 10 µM amounted to 24.7% in [5] (10 µM, first round of selected compounds, read-out: HBV DNA inhibition (%) at 10 µM) and 24% in data set [5] (10 μM, trial 1, read-out: % HBV DNA Inh. at 10 μM, trial 1).
